In patent US5620676A, “Biologically active ATP analogs” (priority 1995, dated 1997):
Entries after “also recorded” stand apart in the source; their conditions may differ. Where two headings read alike, the source gives them in different places. One block for each compound: values may come before it.

Tests used:
[1] = molecular target: T1, P2Y receptor (taenia coli) (Cavia porcellus, UniProt P59902); settings: guinea pig taenia coli, cited from earlier work
T1 construct: Relaxant responses mediated via P2Y receptors were examined in guinea pig taenia coli; from tissue; host or cells: guinea pig taenia coli (carbachol-contracted)

[2] = molecular target: T2, P2X receptor (saphenous artery) (Oryctolagus cuniculus, UniProt G1U3D6); settings: Burnstock et al., 1987a; cited from earlier work
T2 construct: and rabbit saphenous artery; from tissue; host or cells: rabbit saphenous artery
T2 sequence (G1U3D6 1-399): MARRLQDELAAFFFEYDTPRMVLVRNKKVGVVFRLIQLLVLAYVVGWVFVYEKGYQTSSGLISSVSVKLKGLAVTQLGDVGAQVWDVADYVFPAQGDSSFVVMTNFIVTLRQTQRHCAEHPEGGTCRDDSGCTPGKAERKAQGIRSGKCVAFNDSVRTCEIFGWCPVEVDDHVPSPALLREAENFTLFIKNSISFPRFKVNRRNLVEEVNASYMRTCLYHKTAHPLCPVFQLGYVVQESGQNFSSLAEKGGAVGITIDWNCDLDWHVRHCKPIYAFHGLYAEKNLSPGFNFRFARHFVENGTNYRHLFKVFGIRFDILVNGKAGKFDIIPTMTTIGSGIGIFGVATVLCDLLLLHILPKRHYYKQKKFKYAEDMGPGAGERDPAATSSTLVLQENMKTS

[3] = molecular target: T2, P2X receptor (saphenous artery); test: Contraction of rabbit saphenous artery; settings: for activation at 10 µM: read-out: response at 10 μM relative to the contraction produced by 1 μM α,MeATP, saph. artery
Procedure, shortened: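 Contraction of isolated rabbit saphenous artery, standard organ-bath methods; responses at 10 μM expressed as percentage of contraction produced by 1 μM α,MeATP. Highest analogue concentrations tested were 3-30 […].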

[4] = molecular target: T3, P2X receptor (urinary bladder) (Cavia porcellus, UniProt A0A286XVA9); test: Contraction of guinea pig isolated urinary bladder detrussor muscle; settings: guinea pig urinary bladder
T3 construct: guinea pig isolated urinary bladder detrussor muscle; from tissue; host or cells: guinea pig isolated urinary bladder detrusor muscle
Text: (§1) Muscular relaxation/contraction: Relaxant responses mediated via P2Y receptors were examined in guinea pig taenia coli, rabbit aorta, and rabbit mesenteric artery, as described by Hoyle et al. (Br. J. Pharmacol., 107, 367-374 (1992a)), Burnstock et al., (Br. J. Pharmacol., 90, 383-391 (1987a)), and Rubino et al., (Eur. J. Pharmacol., 212, 237-240 (1992)). Contractile responses mediated via P2X receptors were examined in the guinea pig urinary bladder and vas deferens, and rabbit saphenous artery, also using standard methods (see Hoyle et al., supra., 1992; Hoyle et al., Br. J. Pharmacol., 99, 617-621 (1990); and Burnstock et al., Br. J. Pharmacol., 90, 111-120 (1987b)).
(§2) In FIG. 14, the x-axis is also marked in units of the negative log of the molar concentration of applied putative P2Y receptor agonists and the y-axis is marked in units of the percentage relaxation of the 1 μM noradrenalin-induced contraction of rabbit aorta endothelium. In FIGS. 15-16, the x-axis is marked in units of the negative log of the molar concentration of applied putative p^2X receptor agonists and the y-axis is marked in units of the percentage contraction relative to a standard dose of KCl (i.e., 60 mM), as assessed in guinea pig isolated urinary bladder detrussor muscle (FIG. 15) and guinea pig isolated vas deferens (FIG. 16).

[5] = molecular target: T3, P2X receptor (urinary bladder); settings: cited from earlier work
[6] = molecular target: T4, P2X receptor (vas deferens) (Cavia porcellus, UniProt A0A286XVA9); test: Contraction of guinea pig isolated vas deferens
T4 sequence (A0A286XVA9 1-399): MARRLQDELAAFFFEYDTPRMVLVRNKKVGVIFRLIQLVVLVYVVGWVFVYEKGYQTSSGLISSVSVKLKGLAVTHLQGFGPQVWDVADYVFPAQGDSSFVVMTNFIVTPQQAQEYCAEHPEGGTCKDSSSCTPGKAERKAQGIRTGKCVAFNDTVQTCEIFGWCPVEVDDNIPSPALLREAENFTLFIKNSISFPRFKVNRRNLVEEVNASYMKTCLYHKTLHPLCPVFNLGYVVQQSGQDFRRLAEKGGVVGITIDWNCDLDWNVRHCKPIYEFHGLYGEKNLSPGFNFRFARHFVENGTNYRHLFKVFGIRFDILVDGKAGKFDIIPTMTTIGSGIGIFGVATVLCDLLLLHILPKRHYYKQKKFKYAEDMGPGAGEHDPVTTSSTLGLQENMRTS
Text: as §1, §2

[7] = test system: P2X receptor (vas deferens); settings: Burnstock et al. 1985; cited from earlier work
[8] = molecular target: T4, P2X receptor (vas deferens); settings: guinea pig vas deferens; log molar units; footnote e: literature data; cited from earlier work
[9] = molecular target: T5, P2Y receptor (turkey erythrocyte membranes) (Meleagris gallopavo, UniProt P49652); test: Stimulation of phospholipase C (inositol phosphate formation) in turkey erythrocyte membranes; assay type: biochemical
T5 construct: from tissue; host or cells: washed turkey erythrocytes, ghosts prepared by hypotonic lysis
Procedure, shortened: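 Erythrocytes were labelled 18-24 h at 37 °C with [3H]myoinositol, and ghosts were made by hypotonic lysis. Ghosts (≈175 μg protein) were incubated 5 min at 30 °C in Hepes buffer pH 7.0 with 1 μM GTPγS and nucleotide analogs. Total [3H]inositol phosphates were purified by anion exchange; K0.5 averaged from 3-8 dose-response curves.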

[10] = molecular target: T1, P2Y receptor (taenia coli); test: Relaxation of carbachol-contracted guinea pig taenia coli
Procedure, shortened: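 Guinea pig taenia coli precontracted with 50 nM carbachol; relaxation to applied P2Y agonists expressed as percentage relaxation against negative log molar agonist concentration.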

[11] = molecular target: P2Y receptor (mesenteric artery); test: Relaxation of rabbit mesenteric artery; settings: log molar units
Text: Muscular relaxation/contraction: Relaxant responses mediated via P2Y receptors were examined in guinea pig taenia coli, rabbit aorta, and rabbit mesenteric artery, as described by Hoyle et al. (Br. J. Pharmacol., 107, 367-374 (1992a)), Burnstock et al., (Br. J. Pharmacol., 90, 383-391 (1987a)), and Rubino et al., (Eur. J. Pharmacol., 212, 237-240 (1992)).

P2Y receptors = settings: literature; cited from earlier work
P2U receptors = settings: literature; cited from earlier work
[12] = test system: P2Y receptor (aorta endothelium); test: Relaxation of noradrenalin-contracted rabbit aorta; settings: rabbit aorta; log molar units
Text: as §1, §2

[13] = molecular target: T6, adenylyl cyclase linked P2Y receptor (C6 rat glioma cells) (Rattus norvegicus, UniProt Q9EPX4); test: Inhibition of adenylyl cyclase in C6 rat glioma cells; assay type: cell-based; settings: versus phospholipase C linked turkey erythrocyte receptor
T6 construct: endogenous in cells; host or cells: C6 rat glioma cells
Method: This example illustrates the inhibition of adenylyl cyclase activity in C6 rat glioma cells, as a function of the presence of certain ATP analogs in the medium in which the C6 cells were cultured.
Cells were labelled by incubation for 2 hours in the presence of 1 to 2 mCi of tritiated adenine/ml in the medium. Cells were washed twice with HEPES (20 mM, pH 7.5)-buffered Eagle's medium and then preincubated for 10 minutes at 37° C. with fresh medium containing 200 μM 3-isobutyl-1-methylxanthine. Agonist incubations were initiated by the simultaneous addition of 10 μM isoproterenol and various concentrations of nucleotides. The reactions were stopped after 10 minutes of aspiration of the nucleotide-containing medium and addition of 1 ml of ice-cold 5% trichloroacetic acid.

nucleotidases = settings: Zimmet et al.; Jacobson et al.; cited from earlier work
P2X and P2Y receptors [14] = settings: Satchell and Maguire; cited from earlier work
P2X and P2Y receptors [15] = test: Overall activity in the seven P2X and P2Y preparations
[16] = turkey erythrocyte membranes, mean ± S.E.M. for at least 2 determinations, read-out: phosphatidyl inositol metabolism (K0.5, nM) erythrocyte

T1 sequence (P59902 whole entry): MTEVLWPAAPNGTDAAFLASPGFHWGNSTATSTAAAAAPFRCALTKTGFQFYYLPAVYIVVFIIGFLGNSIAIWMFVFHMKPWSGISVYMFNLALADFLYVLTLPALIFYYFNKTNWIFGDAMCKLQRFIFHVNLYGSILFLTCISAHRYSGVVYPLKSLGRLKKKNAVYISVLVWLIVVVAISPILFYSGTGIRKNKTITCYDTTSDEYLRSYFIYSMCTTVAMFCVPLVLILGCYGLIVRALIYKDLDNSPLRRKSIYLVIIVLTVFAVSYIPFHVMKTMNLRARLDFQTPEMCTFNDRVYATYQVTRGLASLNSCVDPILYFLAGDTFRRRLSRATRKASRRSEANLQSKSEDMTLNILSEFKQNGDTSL
T5 sequence (P49652 whole entry): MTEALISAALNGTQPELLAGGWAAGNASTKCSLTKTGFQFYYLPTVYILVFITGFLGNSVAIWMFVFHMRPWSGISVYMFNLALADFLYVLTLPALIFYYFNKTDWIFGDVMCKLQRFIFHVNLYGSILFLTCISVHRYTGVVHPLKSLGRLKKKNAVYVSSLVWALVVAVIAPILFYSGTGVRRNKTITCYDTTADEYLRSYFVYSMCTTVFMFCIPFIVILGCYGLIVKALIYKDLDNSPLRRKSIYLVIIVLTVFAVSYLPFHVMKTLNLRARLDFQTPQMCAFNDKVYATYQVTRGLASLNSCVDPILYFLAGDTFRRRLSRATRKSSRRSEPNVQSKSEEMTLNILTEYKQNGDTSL
T6 sequence (Q9EPX4 whole entry): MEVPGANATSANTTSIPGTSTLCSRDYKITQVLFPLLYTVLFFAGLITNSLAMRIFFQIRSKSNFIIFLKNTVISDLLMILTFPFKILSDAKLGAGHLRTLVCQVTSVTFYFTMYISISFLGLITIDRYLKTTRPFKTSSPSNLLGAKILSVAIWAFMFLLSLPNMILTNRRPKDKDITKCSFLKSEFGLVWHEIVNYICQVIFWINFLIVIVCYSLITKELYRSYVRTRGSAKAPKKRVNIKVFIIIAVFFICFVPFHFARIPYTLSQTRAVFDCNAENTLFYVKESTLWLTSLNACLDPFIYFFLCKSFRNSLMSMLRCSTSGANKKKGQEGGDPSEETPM

SMILES: Nc1ncnc2c1ncn2[C@@H]1O[C@H](COP(=O)(O)CP(=O)(O)OP(=O)(O)O)[C@@H](O)[C@H]1O [a,β-Me-ATP, α,β-methylene-ATP]
- relaxation pD2, taenia coli ([1]; log molar units, footnote e: literature data): 5.6
- activity in words, saphenous artery [2]: a potent constrictor
- contraction produced by 1 μM, saphenous artery ([3]; rabbit saphenous artery, 1 μM): half maximal effect
- activation at 10 µM [3]: 5.9%
- activity/potency in words, bladder [4]: markedly enhanced activity
- activity in words, urinary bladder ([5]; Burnstock et al. 1985): a potent constrictor
- contraction pD2, bladder ([5]; guinea pig urinary bladder, log molar units, footnote e: literature data): 5.7
- activity/potency in words, vas deferens [6]: markedly enhanced activity
- activity in words, vas deferens [7]: a potent constrictor
- contraction pD2, vas [8]: 5.3
- activity/potency in words, turkey erythrocyte ([9]; turkey erythrocyte membranes): a very weak, yet full agonist
- EC50 [9, 16]: > 100000 nM
- activity/potency in words, taenia coli ([10]; guinea pig taenia coli): reduced activity in the taenia coli

SMILES: CSc1nc(N)c2ncn([C@@H]3O[C@H](COP(=O)(O)OP(=O)(O)OP(=O)(O)O)[C@@H](O)[C@H]3O)c2n1 [2-MeS-ATP, 2-methylthio-ATP]
- pD2, taenia coli, as reported by Hoyle et al. [1]: 8.0±0.15
- relaxation pD2, mes. artery [11]: 6.5
- P2Y receptor affinity/potency, in words (P2Y receptors): high affinity for P2Y receptors; also recorded: One of the most potent known P2Y receptor agonists
- potency at P2U receptors, in words (P2U receptors): much less potent than ATP at P2U -receptors
- relaxation pD2, aorta [12]: 6.8
- selectivity for the adenylyl cyclase linked (C6 cell) receptor [13]: 7.3 -fold
- EC50 [9, 16]: 8 ± 2 nM
- EC50 ([9]; turkey erythrocyte membranes, read-out: K0.5): 8 nM
- stability to nucleotidases, in words (nucleotidases): susceptible to ectonucleotidases
- EC50 [10]: 0.01 µM

- activity/potency in words, bladder [4]: limited activity in the urinary bladder
- activity/potency in words, vas deferens [6]: inactive in the vas deferens
- EC50 [9, 16]: 47400 nM
SMILES: Nc1ncnc2c1nc(Br)n2[C@@H]1O[C@H](COP(=O)(O)OP(=O)(O)OP(=O)(O)O)[C@@H](O)[C@H]1O [8-Br-ATP, 8-Bromoadenosine 5'-triphosphate]
- activity at P2 receptors, in words (P2X and P2Y receptors [14]): somewhat active at P2 receptors
- overall activity in words, all preparations (P2X and P2Y receptors [15]): relatively ineffective at the receptors tested in this study

SMILES: Nc1ncnc2c1ncn2[C@@H]1O[C@H](COP(=O)(O)OP(=O)(O)OP(=O)(O)O)[C@@H](O)[C@H]1O [ATP, adenosine-5'-triphosphate, reference compound]
- relaxation pD2, mes. artery [11]: 6.0
- EC50 [3]: 1780 µM
- activation at 10 µM [3]: 5%
- contraction pD2, vas [8]: 3.5
- relaxation pD2, aorta [12]: 4.5
- EC50 ([9]; K0.5, turkey erythrocyte membranes, read from graph): 10000 nM
- EC50 [9, 16]: 2800 ± 700 nM
- EC50 [10]: 0.631 µM
- relaxation pD2, taenia coli ([10]; guinea pig taenia coli, log molar units): 6.2 ± 0.08
